From patent publication US4051237A, “Glycopeptide antibiotics Bu-2231 A and B and process for producing same” (priority 1975, dated 1977)
Read-outs that look alike come from different tables or passages of the source.

Key:
[1] = test system: Bacillus subtilis PCI-219; assay: Paper disc-agar diffusion method
[2] = mice, sc, up to a dose of 50 mg./kg.
Experimental: The acute toxicity of copper-free Bu-2231 A and B was determined in mice by a single subcutaneous injection. Groups of 3 mice were used for each dose level and the body weight was recorded for 16 days.

Lewis Lung carcinoma = settings: for Effect MST %T/C / MST Days / Survivors Day 5: Exp. #55; for Survivors Day 5: toxicity evaluation
[3] = test system: Walker 256 carcinosarcoma in ascitic form; settings: for Effect MST %T/C / MST Days / Average Weight Change / Survivors Day 5: Exp. #5501; for MST Days: Bu-2231 A and B as copper-free formate salts; for Average Weight Change: recorded Day 5; for Survivors Day 5: toxicity evaluation; for fold greater potency (vs bleomycin): Table II, copper-free formate salts;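 as to all read-outs here: female SD rats bearing intraperitoneally implanted ascites tumor cells, treated ip once a day for 8 days beginning on Day 1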
[4] = 0.5 mg/kg/day ip once daily for 9 days
[5] = 1 mg/kg/day ip once daily for 9 days
[6] = 2 mg/kg/day ip once daily for 9 days
[7] = 4 mg/kg/day ip once daily for 9 days
[8] = 8 mg/kg/day ip once daily for 9 days
[9] = 10 mcg/kg/day ip once daily for 8 days
[10] = 40 mcg/kg/day ip once daily for 8 days
[11] = 160 mcg/kg/day ip once daily for 8 days
[12] = 640 mcg/kg/day ip once daily for 8 days

Row | Compound | activity against B. subtilis PCI-219 [1] | Effect MST %T/C (Lewis Lung carcinoma; [4]) [%] | MST Days (Lewis Lung carcinoma; [4]) [days] | Survivors Day 5 (Lewis Lung carcinoma; 0.5 mg/kg/day) | Effect MST %T/C (Lewis Lung carcinoma; [5]) [%] | MST Days (Lewis Lung carcinoma; [5]) [days] | Survivors Day 5 (Lewis Lung carcinoma; 1 mg/kg/day) | Effect MST %T/C (Lewis Lung carcinoma; [6]) [%] | MST Days (Lewis Lung carcinoma; [6]) [days] | Survivors Day 5 (Lewis Lung carcinoma; 2 mg/kg/day) | Effect MST %T/C (Lewis Lung carcinoma; [7]) [%] | MST Days (Lewis Lung carcinoma; [7]) [days] | Survivors Day 5 (Lewis Lung carcinoma; 4 mg/kg/day) | Effect MST %T/C (Lewis Lung carcinoma; [8]) [%] | MST Days (Lewis Lung carcinoma; [8]) [days] | Survivors Day 5 (Lewis Lung carcinoma; 8 mg/kg/day) | Effect MST %T/C [3, 9] [%] | MST Days [3, 9] [days] | Survivors Day 5 ([3]; 10 mcg/kg/day) | Effect MST %T/C [3, 10] [%] | further results
1 | Cc1c(N)nc([C@H](CC(N)=O)NC[C@@H](N)C(N)=O)nc1C(=O)N[C@H](C(=O)N[C@H](C)[C@@H](O)CC(=O)N[C@@H](C(=O)NC(O[C@@H]1O[C@@H](C)[C@@H](N)[C@@H](O)[C@H]1O)C(O)c1nc(-c2nc(C(=O)NCCCNCCCCN)cs2)cs1)[C@@H](C)O)C(O[C@@H]1O[C@@H](CO)[C@H](O)[C@@H](O)[C@@H]1O[C@H]1O[C@H](CO)[C@@H](O)[C@@H](OC(N)=O)[C@@H]1O)c1cnc[nH]1 (stereo partly shown) [Bu-2231 B] | active | 102 | 22.5 | 6/6 | 134 | 29.5 | 6/6 | 136 | 30.0 | 6/6 | 48 | 10.5 | 6/6 | 27 | 6.0 | 5/6 | 114 | 8.0 | 6/6 | 157 | death in acute toxicity test [2]: No death occurred; activity against Lewis Lung Carcinoma (T/C >= 125 criterion) (Lewis Lung carcinoma; doses of 2 and 1 mg./kg.): active; Average Weight Change ([3]; 10 mcg/kg/day): +36.5 g.; MST Days [3, 10]: 11.0 days; Survivors Day 5 ([3]; 40 mcg/kg/day): 6/6; Effect MST %T/C [3, 11]: 186%; MST Days [3, 11]: 13.0 days; Average Weight Change ([3]; 160 mcg/kg/day): +36.5 g.; Survivors Day 5 ([3]; 160 mcg/kg/day): 6/6; Effect MST %T/C [3, 12]: 186%; MST Days [3, 12]: 13.0 days; Average Weight Change ([3]; 640 mcg/kg/day): +10.7 g.; Survivors Day 5 ([3]; 640 mcg/kg/day): 6/6; fold greater potency (vs bleomycin) [3]: 4 fold; solubility (ethanol): slightly soluble; solubility (methanol): soluble; solubility (other organic solvents): practically insoluble; solubility (water): soluble
2 | Cc1c(N)nc([C@H](CC(N)=O)NC[C@H](N)C(N)=O)nc1C(=O)N[C@H](C(=O)N[C@H](C)[C@@H](O)CC(=O)N[C@H](C(=O)NC(O[C@@H]1O[C@@H](C)[C@@H](N)[C@@H](O)[C@H]1O)C(O)c1nc(-c2nc(C(=O)NCCCC(N)CC(=O)NCCCNCCCCN)cs2)cs1)[C@@H](C)O)[C@H](O[C@@H]1O[C@@H](CO)[C@@H](O)[C@H](O)[C@@H]1O[C@H]1O[C@H](CO)[C@@H](O)[C@H](OC(N)=O)[C@@H]1O)c1c[nH]cn1 (stereo partly shown) [Bu-2231 A] | active | 120 | 26.5 | 6/6 | 123 | 27.0 | 6/6 | 114 | 25.0 | 6/6 | 32 | 7.0 | 6/6 | 27 | 6.0 | 6/6 | 129 | 9.0 | 6/6 | 157 | activity against Lewis Lung Carcinoma (T/C >= 125 criterion) (Lewis Lung carcinoma; 1 mg./kg.): just below an active level; MST Days [3, 10]: 11.0 days; Survivors Day 5 ([3]; 40 mcg/kg/day): 6/6; Effect MST %T/C [3, 11]: 179%; MST Days [3, 11]: 12.5 days; Average Weight Change ([3]; 160 mcg/kg/day): +28.8 g.; Survivors Day 5 ([3]; 160 mcg/kg/day): 6/6; Effect MST %T/C [3, 12]: 250%; MST Days [3, 12]: 17.5 days; Survivors Day 5 ([3]; 640 mcg/kg/day): 6/6; fold greater potency (vs bleomycin) [3]: 4 fold; solubility (ethanol): slightly soluble; solubility (methanol): soluble; solubility (other organic solvents): practically insoluble; solubility (water): soluble
